In the assay the target is T1, purified recombinant human caspase-3 (Homo sapiens, UniProt P42574).
T1 construct: Active site shared between large and small caspase subunit
T1 sequence (P42574 29-175 limits assumed): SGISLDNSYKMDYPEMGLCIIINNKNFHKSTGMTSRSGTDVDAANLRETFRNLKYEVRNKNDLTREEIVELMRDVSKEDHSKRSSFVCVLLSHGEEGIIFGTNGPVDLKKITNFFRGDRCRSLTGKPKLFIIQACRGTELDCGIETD
T1 sequence (P42574 176-277 limits assumed): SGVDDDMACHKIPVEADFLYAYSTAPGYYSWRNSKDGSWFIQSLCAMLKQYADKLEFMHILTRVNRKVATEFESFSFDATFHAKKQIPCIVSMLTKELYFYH
As to the kind of experiment: Caspase inhibitor titration by [125I]-M808 labeling of purified recombinant human caspase-3 (SDS-PAGE). Format: binding. As to the method:
FIG. 3. Potency assessment caspase inhibitors by [^125]-M808 labeling and by DEVD-AMC cleavage activity. A, B-Caspase inhibitor titration and [^125]-M808 labeling with purified recombinant human caspase-3. A-M791 with 5 minute labeling reaction and M791 with 60 minute labeling reaction. In A, the indicated IC50 was defined as the concentration of M791 that reduced the intensity of [^125I]-M808-labeled p17 subunit of caspase-3 by 50%. B-Caspase inhibitor titration and DEVD-AMC cleavage activity with recombinant human caspase-3 that had been incubated with indicated concentration of M791. Under the fluorogenic assay conditions Ki=IC50/2.
The determination of caspase activity by [^125I]-M808 labeling was performed by pre-incubating purified recombinant human caspase-3 with indicated amounts of caspase inhibitor (M791) or vehicle (DMSO), for 1 hour at 25° C. in ICE buffer III (50 mM Hepes-KOH pH 7.0, 0.1% CHAPS, 10% sucrose, 2 mM EDTA), supplemented with 5 mM DTT. [^125I]-M808 was added to a final concentration of 1.25 μM and incubated for 5 min at 25° C. Active caspases in tissue or cell extracts were labeled by incubating 60-80 μg of lysate with [^125I]-M808 for 15 minutes at 25° C. Labeling was stopped by addition of Laemli buffer (2% SDS; 0.35 M O-mercaptoethanol; 50 mM Tris-Cl pH 6.8; 10% glycerol; 0.05% bromophenol blue) and by heating at 95° C. for 5 minutes. […]

Read-outs that look alike come from different tables or passages of the source.

Here are results for one molecule from patent publication US20060069038A1, “Irreversible caspase-3 inhibitors as active site probes” (priority 2003, published 2006).

Turning to `COc1ccc(-c2nc(C)no2)cc1CC(=O)N[C@H](C(=O)N[C@@H](CC(=O)O)C(=O)CSCc1ccccc1)C(C)C` [Example M791, (3S)-5-(benzylthio)-3-[(N-{[2-methoxy-5-(3-methyl-1,2,4-oxadiazol-5-yl)phenyl]acetyl}-L-valyl)amino]4-oxopentanoic acid], the IC50 ([125I]-M808 added for 5 minutes, read-out: IC50 by [125I]-M808 labeling (50% reduction of labeled p17 subunit)) was 0.45 nM and the IC50 (incubating with [125I]-M808 for 60 minutes instead of 5, read-out: apparent IC50 by [125I]-M808 labeling) turned out to be 1 nM.

The term IC50 denotes the point on the concentration scale where inhibition reaches its midpoint.
